Patent US11453674B2, “Heterocyclic compound, preparation method and use thereof in medicine” (SUZHOU SINOVENT PHARMACEUTICALS CO., LTD., priority 2019, dated 2022)

Tests used:
human hepatocytes = assay: Metabolite study in human hepatocyte incubation system; format: in vitro ADME; conditions: 180 min incubation, LC-MS
Method: Example 28: Study on Metabolites of Compound in Human and Rat Hepatocyte Incubation System
1. Preparation of Stock and Working Solutions
Stock solution: A proper amount of test sample powders was dissolved in DMSO or other proper solvents, and the mixture was well mixed to give a stock solution (10 mM). The stock solution was preserved in a refrigerator at 4° C. for later use.
Working solution: The 10 mM stock solution was diluted to 1 mM working solution using acetonitrile, and well mixed for later use.
2. Preparation of Thawing Medium I
Williams' Medium E, glutamate, HEPES, fetal bovine serum albumin, human recombinant insulin, dexamethasone, and cell separation medium (Percoll™) were mixed in a ratio of 700:10:15:50:1:0.1:300 for use.
3. Preparation of Terminating Solution
An acetonitrile solution containing 0.1% formic acid was prepared as the terminating solution and preserved in a refrigerator at 4° C. for use.
4. Isolation and Preparation of Hepatocyte Suspension
The cryopreserved hepatocytes were thawed in a water bath at 37° C. for about 90 s, and quickly poured into the pre-heated isolating buffer. Residual hepatocytes were washed using the isolating buffer. Cells were combined and mixed well, and centrifuged at room temperature for 5 min at 100×g. The supernatant was discarded and the cells were resuspended using pre-heated William' Medium E. 20 μL of hepatocyte suspension was added into 100 μL of 0.4% Trypan blue. The cells were counted, and a cell viability over 70% was required. The hepatocyte density was adjusted to 1.25×10^6 cells/mL using William' Medium E.
5. Incubation and Treatment of Samples
1) The test compound working solution was pre-incubated (pre-heated) in a constant-temperature incubator at 37° C. for 10 min. 2 μL of the working solution (1 mM) was pipetted to a cell culture plate containing 160 μL of hepatocyte suspension at 1.25×10^6 cells/mL, and the mixture was well mixed. 38 μL of Williams' Medium E was added. The mixture was well mixed and incubated in an incubator (in a total volume of 200 μL), and the timer was started. For the blank control, […] of Williams' Medium E was added instead of the working solution. For 0-min samples, 400 μL of acetonitrile (containing 0.1% formic acid) was added, followed by the working solution and Williams' Medium E.
2) After 180 min of incubation, the samples were measured for the cell viability. Then 400 μL of acetonitrile (containing 0.1% formic acid) solution was added to terminate the reaction.
3) After the reaction was terminated, the plate was shaken on a shaker at 300 rpm for 10 min, followed by centrifugation at least 10000×g for at least 10 min. After centrifugation, the supernatant was all transferred to centrifuge tubes and dried with nitrogen.
4) The residues were re-dissolved in a suitable solvent, and centrifuged at least 10000×g for at least 15 min at room temperature. The supernatant was transferred to a sample analysis plate for LC-MS analysis.
5) The methodology for 7-ethoxycoumarin (30 μM) was the same as that of test samples. Samples of the test compounds after incubation were used for metabolite assay only when the target metabolite was detected in the positive control sample. Otherwise, the above experiment should be repeated.
6. Data Acquisition and Analysis […]

[1] = test system: primary human hepatocytes; assay: Cytotoxicity assay on primary human hepatocytes (CellTiter-Glo, 48 h); format: cell-based; conditions: Hepatocyte, cell viability, 48 h incubation
Method: Example 26: Cytotoxicity Assay of Compounds on Primary Human Hepatocytes
Primary human hepatocytes were purchased from Biorecamation IVT. Co., Ltd. (lot no.: AKB/S1391); the components of in vitro culture media of primary human cell and suppliers are as follows:
1. Frozen primary human hepatocytes were thawed, then resuspended in a culture medium containing 10% FBS. The cells were transferred into a 96-well plate, at 8×10^4 cells/well, followed by incubating overnight in an incubator at 5% CO2 at 37° C.;
2. […] The test compounds and control drug were added to wells, at 100 μL/well, to form test compound wells or reference wells, and the culture medium containing 10% FBS was added to wells, at 100 μL/well, as negative control. The cells were incubated in an incubator in the presence of 5% CO2 at 37° C. for 48 h.
3. The primary human hepatocytes were washed with PBS (0.1 M, pH=7.4) twice, and were added with CellTiter-Glo reagent at 100 μL/well. Cell-free wells added with CellTiter-Glo reagent at 100 μL/well served as the blank control. The 96-well plate was shaken on a shaker for 5 min, and then left at room temperature for 10 min.
4. The chemiluminescence values were detected using Victor X4 (Perkin Elmer). The chemiluminescence values of the test compound wells were denoted as F(test compound), the chemiluminescence values of the blank control wells were denoted as F(blank), and the chemiluminescence values of the negative control wells were denoted as F(negative control). The cell viabilities at different concentrations were calculated according to the following formula. Each concentration was measured in triplicate to give the average and the standard deviation.
5. The half maximal inhibitory concentration (IC50) of the test compounds to the primary human hepatocytes were calculated using Prism Graph software.

CYP2C9 = biological target: T1, CYP2C9 (Homo sapiens, UniProt P11712); assay: Inhibitory effect on CYP2C9 enzyme in microsomes (diclofenac probe); format: in vitro ADME; conditions: microsomes 0.25 mg/mL, diclofenac 10 μM; IC50 higher than that of benzbromarone
T1 construct: from tissue
Method: Example 27: Evaluating the Inhibitory Effects of Compounds on CYP2C9 Enzyme
The assay was performed in 100 mM phosphate buffer in a total volume of 200 μL. The microsome concentration in the reaction system was 0.25 mg/mL, the concentrations of the test compounds were 10, 3.33, 1.11, 0.37, 0.12, 0.04 and 0 μM, the CYP2C9-specific probe substrate and the concentration were diclofenac (10 μM). The mixture was pre-incubated in a 37° C. thermostatic oscillator for 5 min, and a NADPH-generating system (containing 1.3 mM NADP^+, 3.3 mM D(+)-glucopyranose-6-phosphate, […] glucose-6-phosphate dehydrogenase, 3.3 mM MgCl2) was added to start the reaction. After incubation for 10 min, the reaction was terminated by adding an equal volume of acetonitrile. The mixture was vortexed and centrifuged at 13,000 rpm. The resulting supernatant was loaded to LC-MS-MS to determine the content of metabolites. The metabolite of diclofenac specifically obtained by CYP2C9 metabolism pathway is 4-hydroxydiclofenac. Sulfaphenazole was adopted as a specific CYP2C9 inhibitor. In the experiment, analysis was performed by GraphPad Primsm 5.0 to calculate the half maximal inhibitory concentration (IC50 value).

T1 sequence (P11712 whole entry): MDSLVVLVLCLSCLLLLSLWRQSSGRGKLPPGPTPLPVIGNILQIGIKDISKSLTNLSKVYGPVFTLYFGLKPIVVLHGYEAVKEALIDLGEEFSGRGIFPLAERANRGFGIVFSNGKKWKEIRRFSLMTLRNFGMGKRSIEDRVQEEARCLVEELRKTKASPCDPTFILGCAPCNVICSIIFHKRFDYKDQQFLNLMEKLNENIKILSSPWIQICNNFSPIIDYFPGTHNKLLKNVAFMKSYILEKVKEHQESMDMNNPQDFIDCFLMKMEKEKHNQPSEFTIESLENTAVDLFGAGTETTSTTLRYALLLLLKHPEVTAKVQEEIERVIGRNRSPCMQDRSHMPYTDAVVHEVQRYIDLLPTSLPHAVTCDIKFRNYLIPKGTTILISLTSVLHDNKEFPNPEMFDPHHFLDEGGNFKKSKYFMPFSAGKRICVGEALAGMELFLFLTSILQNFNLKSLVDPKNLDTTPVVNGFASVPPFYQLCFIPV

Q: With `CCc1nc2ncc(F)cn2c1C(=O)c1cc(Br)c(O)c(Br)c1` [Example 4, (3,5-dibromo-4-hydroxyphenyl)(2-ethyl-6-fluoroimidazo[1,2-a]pyrimidin-3-yl)methanone] as the molecule, how does the “toxic metabolites of benzbromarone type” value (human hepatocytes) read?
A: The value was “not observed”.

Q: What about the IC50 [1] of the same molecule?
A: Its IC50 is 257 µM.

Q: And the “inhibitory effect on CYP enzymes (CYP2C9)” value (“inhibitory effect” below) (CYP2C9)?
A: Its value is “very low or no inhibitory effect”.

Q: Which “toxic metabolites of benzbromarone type” value (human hepatocytes) does the source give for `CCc1nc2ncc(C(F)(F)F)cn2c1C(=O)c1cc(Br)c(O)c(Br)c1` [Example 5, (3,5-dibromo-4-hydroxyphenyl)(2-ethyl-6-(trifluoromethyl)imidazo[1,2-a]pyrimidin-3-yl)methanone] here?
A: The value was “not observed”.

Q: And the IC50 [1]?
A: The IC50 was 77.8 µM.

Q: What about the “inhibitory effect” value (CYP2C9) of the same molecule?
A: Its value is “very low or no inhibitory effect”.

Q: Which “toxic metabolites of benzbromarone type” value (human hepatocytes) does the source give for `CCc1nc2ncc(F)cn2c1C(=O)c1cc(Br)c(O)c(C#N)c1` [Example 14, 3-bromo-5-(2-ethyl-6-fluoroimidazo[1,2-a]pyrimidine-3-carbonyl)-2-hydroxybenzonitrile] here?
A: The value was “not observed”.

Q: And the IC50 [1]?
A: The IC50 was no less than 1000 µM.

Q: What about the “inhibitory effect” value (CYP2C9) of the same molecule?
A: The value was “very low or no inhibitory effect”.

Q: How did the “toxic metabolites of benzbromarone type” value (human hepatocytes) turn out when `CCc1nc2ncccn2c1C(=O)c1cc(Br)c(O)c(Br)c1` [Example 20, 2,6-dibromo-4-([2-ethylimidazo[1,2-a]pyrimidin-3-yl]carbonyl) phenol] was run?
A: The value was “not observed”.

Q: What about the “inhibitory effect” value (CYP2C9) of the same molecule?
A: Its value is “very low or no inhibitory effect”.

Q: How did the “toxic metabolites of benzbromarone type” value (human hepatocytes) turn out when `CCc1nc2cc(Cl)ncn2c1C(=O)c1cc(Br)c(O)c(Br)c1` [Example 21, (7-chloro-2-ethylimidazo[1,2-f]pyrimidin-3-yl)(3,5-dibromo-4-hydroxyphenyl)methanone] was run?
A: The value was “not observed”.

Q: And the IC50 [1]?
A: Its IC50 is 347 µM.

Q: What about the “inhibitory effect” value (CYP2C9) of the same molecule?
A: The value was “very low or no inhibitory effect”.
